# Results reported in US4996225A, “Tri-phenyl alkane derivatives and their oestrogenic, anti-oestrogenic and progestanic uses” (Farmos Group Ltd., priority 1982, dated 1991).
# Entries after “also recorded” stand apart in the source; their conditions may differ.
# Key:
# oestrogen receptors = molecular target: T1, oestrogen receptors (Rattus norvegicus, UniProt P06211); assay: affinity for oestrogen receptors, competition with 3H-17-β-estradiol in rat uterus cytosol (dextran-charcoal method); format: binding; details: read-out: Estrogen receptor affinity (concentration of compound where 50% competition (inhibition) with 3H-estradiol occurred)
# T1 construct: rat uterus cytosol preparation; from tissue; host or cells: rat uterus cytosol
# T1 sequence (P06211 1-600): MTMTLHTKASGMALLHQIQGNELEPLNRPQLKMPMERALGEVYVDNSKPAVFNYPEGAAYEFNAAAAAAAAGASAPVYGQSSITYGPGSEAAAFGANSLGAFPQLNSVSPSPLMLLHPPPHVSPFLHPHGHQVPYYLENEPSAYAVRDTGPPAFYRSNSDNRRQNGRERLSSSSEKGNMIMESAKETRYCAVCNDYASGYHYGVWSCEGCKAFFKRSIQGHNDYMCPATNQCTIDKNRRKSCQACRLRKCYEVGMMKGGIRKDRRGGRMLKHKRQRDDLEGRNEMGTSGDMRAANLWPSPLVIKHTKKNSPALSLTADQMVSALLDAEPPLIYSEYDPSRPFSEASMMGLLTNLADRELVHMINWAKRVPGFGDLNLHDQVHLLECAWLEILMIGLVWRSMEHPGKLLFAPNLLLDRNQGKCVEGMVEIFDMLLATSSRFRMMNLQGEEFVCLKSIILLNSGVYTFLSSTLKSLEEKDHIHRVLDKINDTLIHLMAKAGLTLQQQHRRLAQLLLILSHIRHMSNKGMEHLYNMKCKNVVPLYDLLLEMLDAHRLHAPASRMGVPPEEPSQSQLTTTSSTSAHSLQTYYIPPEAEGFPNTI
# Experimental: The affinity of the new compounds for oestrogen receptors was determined by the ability to compete with ^3 H-labelled 17-β-estradiol in rat uterus cytosol preparation. After incubation, receptor-bound and receptor-unbound ligands were separated by a known dextrancharcoal method.
# [1] = system: MCF-7 cell line (human mammary adenocarcinoma); assay: anti-tumour effect in vitro, growth of MCF-7 cell line (bioluminescence assay, intracellular ATP); format: cell-based; details: read-out: Antitumour effect against MCF-7 cell line (IC50 = concentration of compound where 50% inhibition of cell growth could be seen)
# Experimental: The anti-tumour effect was studied in vitro as follows:
# The amount of living cells after 4 h, 24 h and 48 h incubations were determined by bioluminescence assay (intracellular ATP determination).
# inhibition of cell growth could be seen.
# immature mouse uterus [2] = assay: oestrogenic effect, uterus weight of immature mice; format: in vivo; details: for increase in uterus weight / estrogenic effect: less than that of estradiol 0.05 mg/kg: 5 mg/kg; for estrogenic effect (in words): immature mice, s.c., three days
# Experimental: (§1) The oestrogen-antiestrogen (progesterone) effect of the new compounds in vivo was determined as follows: (1) The oestrogenic properties were determined by administering the new compounds, suspended in sesame oil, subcutaneously to 21 days old immature mice on three consecutive days. The mice were killed on the fourth day and the uterus was weighed. […] The weight correlates with the oestrogenic effect of the compound tested. […] In this case, the ability of the molecules to inhibit oestrogen-induced uterus weight increase was also investigated.
# [3] = system: estradiol induced weight increase in immature mouse uterus; assay: antiestrogenic effect, inhibition of oestrogen-induced uterus weight increase in immature mice; format: in vivo; details: for inhibition of estradiol-induced uterus weight increase: estradiol 5 μg/kg; for anti-estrogenic effect (in words): immature mouse uterus; for effect with estradiol (in words) / reduction in the weights of mice uterus, with estradiol: with estradiol 0.05 mg/kg
# Experimental: as §1
# [4] = system: DMBA-induced rat mammary adenocarcinomas; assay: antitumour effect in vivo against DMBA-induced rat mammary adenocarcinoma; details: for growth / size of tumour (width×height): 30 mg/kg
# Experimental: (§2) The anti-tumour effect was investigated in vivo against DMBA-induced rat mammary adenocarcinomas, transplantable mammary and ovarial adenocarcinoma and transplantable prostatic squamous cell carcinoma by the following methods:
# Mammary adenocarcinomas were induced by DMBA in 35-40 days old female rats. […] Tumour size and numbers of tumours were evaluated twice a week. Tumour sizes in the control group, treated with solvent, were compared with the test groups.
# The size refers to the width×height of the tumour. The growth rate is a difference between sizes compared with that of the first day of the treatment.
# immature mouse uterus [5] = assay: progestanic effect, uterus weight of immature mice (alone or with medroxyprogesterone acetate); format: in vivo; design: reduction in the weight of a mouse uterus, given alone / reduction in the weight of uterus with medroxyprogesterone / reduction in the weights of mice uterus, given alone: concentration or dose not given beside the values; details: for reduction in the weights of mice uterus, given alone: Table 2A; for effect with medroxyprogesterone (in words) / reduction in the weights of mice uterus with medroxyprogesterone, compared to control: with medroxyprogesterone 0.06 mg/kg; for progestanic effect (in words): immature mouse uterus
# mouse uterus sarcoma = assay: antitumour effect against transplantable mouse uterus sarcoma; format: in vivo; details: 100 mg/kg, two weeks' treatment
# Description: The activity of the molecules against other tumours was studied by administering the molecules by stomach tube to animals implanted with transplantable uterus sarcoma (mice) or prostatic adenocarcinoma (rats).
# Daily or twice weekly administration schedules were employed. NMRI mice (about 20 g, females) and Fischer 344 rats (about 200 g, males) were used. Estramustine phosphate served as positive control.
# (§3) Transplantable rat mammary adenocarcinoma was developed by inoculating pieces of DMBA-induced carcinomas subcutaneously to healthy mature female rats. A tumour which expressed malignant growth was selected for further transplantations. Other transplantable tumours were inoculated subcutaneously as washed cell suspension (10^7 cells/animal).
# rat ovarial carcinoma = assay: antitumour effect against transplantable rat ovarial carcinoma; format: in vivo; details: 5 mg/kg, ten days' treatment
# Description: as §2, §3
smiles,measurement,setting,value
"CN(C)CCOc1ccc(/C(=C(/CCI)c2ccccc2)c2ccccc2)cc1 [Compound 22, 4-iodo-1,2-diphenyl-1-[4-[2-(N,N-dimethylamino)ethoxy]phenyl]-1-butene]",IC50,oestrogen receptors,100 to 1000 nM
same,IC50,[1],1000 to 5000 nM
same,increase in uterus weight,immature mouse uterus [2],≤ 70%
same,inhibition of estradiol-induced uterus weight increase,[3]; 5 mg/kg,less than 67%
same,amount of new tumours (in words),"[4]; rat, in vivo",the amount of new tumours decreased
same,growth rate of the tumours (in words),"[4]; rat, in vivo",the growth rate of the tumours decreased
"CN(C)CCOc1ccc(/C(=C(/CCF)c2ccccc2)c2ccccc2)cc1 [Compound 21, 4-fluoro-1,2-diphenyl-1-[4-[2-(N,N-dimethylamino)ethoxy]phenyl]-1-butene]",IC50,oestrogen receptors,100 to 1000 nM
same,IC50,[1],5000 to 10000 nM
same,increase in uterus weight,immature mouse uterus [2],≤ 55%
same,inhibition of estradiol-induced uterus weight increase,[3]; 5 mg/kg,68-100%
same,growth rate of the tumours (in words),"[4]; rat, in vivo",only the growth rate of the tumours was reduced
"CN(C)CCOc1ccc(/C(=C(/CCO)c2ccccc2)c2ccccc2)cc1 [Compound 4, 1,2-diphenyl-1-[4-[2-(N,N-dimethylamino)-ethoxy]-phenyl]-1-buten-4-ol]",IC50,oestrogen receptors,1000 to 10000 nM
same,IC50,[1],1000 to 5000 nM
same,effect given alone: progestanic (in words),immature mouse uterus [5]; given alone,progestanic
same,"reduction in the weight of a mouse uterus, given alone",immature mouse uterus [5]; given alone,38%
same,"reduction in the weights of mice uterus, given alone",immature mouse uterus [5]; given alone,31%
same,interaction with medroxyprogesterone (in words),immature mouse uterus [5]; with medroxyprogesterone,slight inhibition
same,reduction in the weight of uterus with medroxyprogesterone,immature mouse uterus [5]; with medroxyprogesterone,17%
same,effect with medroxyprogesterone (in words),immature mouse uterus [5],weak
same,"reduction in the weights of mice uterus with medroxyprogesterone, compared to control",immature mouse uterus [5],17%
same,estrogenic effect of their own (in words),immature mouse uterus [2]; up to 5 mg/kg,no estrogenic effect of their own
same,inhibition of estradiol induced effect in mouse uterus,[3]; 0.5 mg/kg,12%
same,effect given alone: antiestrogenic (in words),[3]; given alone,anti-
same,anti-estrogenic effect (in words),[3],possessed anti-estrogenic effects
same,effect with estradiol (in words),[3],anti-
same,"reduction in the weights of mice uterus, with estradiol",[3],21%
same,growth rate of tumours compared to controls,[4]; 10 mg/kg,one eighth
"CN(C)CCOc1ccc(/C(=C(/CCBr)c2ccccc2)c2ccccc2)cc1 [Compound 13, 4-bromo-1,2-diphenyl-1-[4-[2-(N,N-dimethylamino)ethoxy]phenyl]-1-butene]",IC50,oestrogen receptors,100 to 1000 nM
same,IC50,[1],1000 to 5000 nM
same,effect with medroxyprogesterone (in words),immature mouse uterus [5],weak
same,"reduction in the weights of mice uterus with medroxyprogesterone, compared to control",immature mouse uterus [5],14%
same,estrogenic effect: less than that of estradiol 0.05 mg/kg,immature mouse uterus [2],about 50%
same,effect given alone: estrogenic (in words),immature mouse uterus [2],estrogenic
same,"increase in the weights of mice uterus, given alone",immature mouse uterus [2],50%
same,estrogenic effect (in words),immature mouse uterus [2],could be seen only at the higher concentrations investigated
same,inhibition of estradiol induced effect in mouse uterus,[3]; 5 mg/kg,25%
same,anti-estrogenic effect (in words),[3],possessed anti-estrogenic effects
same,effect with estradiol (in words),[3],anti-
same,"reduction in the weights of mice uterus, with estradiol",[3],25%
same,antitumour effect against DMBA-induced mammary cancer (in words),[4]; compared with compound 7,Antitumour effect less than that of compound 7
"CNCCOc1ccc(/C(=C(/CCCl)c2ccccc2)c2ccccc2)cc1 [Compound 23, 4-chloro-1,2-diphenyl-1-[4-[2-(N-methylamino)ethoxy]phenyl]-1-butene]",IC50,oestrogen receptors,1000 to 10000 nM
same,IC50,[1],1000 to 5000 nM
same,increase in uterus weight,immature mouse uterus [2],≤ 55%
same,inhibition of estradiol-induced uterus weight increase,[3]; 5 mg/kg,68-100%
same,growth rate of the tumours (in words),"[4]; rat, in vivo",only the growth rate of the tumours was reduced
"Oc1ccc([C@@]2(c3ccccc3)OCCC[C@@H]2c2ccccc2)cc1 (relative stereo) [Compound 5, 2,3-diphenyl-2-(4-hydroxyphenyl)tetrahydropyran]",IC50,oestrogen receptors,100 to 1000 nM
same,IC50,[1],1000 to 5000 nM
same,decrease of weight of mouse uterus,immature mouse uterus [5]; 0.05 mg/kg,34%
same,effect given alone: progestanic (in words),immature mouse uterus [5]; given alone,progestanic
same,"reduction in the weights of mice uterus, given alone",immature mouse uterus [5]; given alone,34%
same,progestanic effect (in words),immature mouse uterus [5],due to its progestanic effect
same,interaction with medroxyprogesterone (in words),immature mouse uterus [5]; with medroxyprogesterone,No inhibition of medroxyprogesterone
same,effect with medroxyprogesterone (in words),immature mouse uterus [5],no inhibition
same,"reduction in the weights of mice uterus with medroxyprogesterone, compared to control",immature mouse uterus [5],34%
same,estrogenic effect: less than that of estradiol 0.05 mg/kg,immature mouse uterus [2],41%
same,estrogenic effect (in words),immature mouse uterus [2],could be seen only at the higher concentrations investigated
same,estrogenic effect with increased doses (in words),"immature mouse uterus [2]; increased doses, effect overcame that of medroxyprogesterone",a weak estrogenic effect could be seen; also recorded: A slight increase in the weight of uterus
same,anti-estrogenic effect (in words),[3],no antiestrogenic effect
same,effect with estradiol (in words),[3],no synergism
"CN(C)CCOc1ccc(/C(=C(/CCCl)c2ccccc2)c2ccccc2)cc1 [Compound 7, 4-chloro-1,2-diphenyl-1-[4-[2-(N,N-dimethylamino)ethoxy]phenyl]-1-butene]",IC50,[1],1000 to 5000 nM
same,effect given alone: progestanic (in words),immature mouse uterus [5]; given alone,progestanic
same,progestanic effect (in words),immature mouse uterus [5],found to be progestanic
same,interaction with medroxyprogesterone (in words),immature mouse uterus [5]; with medroxyprogesterone,slight inhibition of medroxyprogesterone at the lowest dose studied
same,effect with medroxyprogesterone (in words),immature mouse uterus [5],weak
same,"reduction in the weights of mice uterus with medroxyprogesterone, compared to control",immature mouse uterus [5],14%
same,estrogenic effect: less than that of estradiol 0.05 mg/kg,immature mouse uterus [2],about 50%
same,effect given alone: estrogenic (in words),immature mouse uterus [2],estrogenic
same,estrogenic effect (in words),immature mouse uterus [2],could be seen only at the higher concentrations investigated; also recorded: possessing antiestrogenic and estrogenic properties
same,size of uterus sarcoma smaller than that of control,mouse uterus sarcoma,30%
same,inhibition of estradiol induced effect in mouse uterus,[3]; 0.5 mg/kg,27%
same,anti-estrogenic effect (in words),[3],possessed anti-estrogenic effects; also recorded: possessing antiestrogenic and estrogenic properties
same,effect with estradiol (in words),[3],anti-
same,"reduction in the weights of mice uterus, with estradiol",[3],27%
same,growth,[4]; day 1 of treatment,0
same,size of tumour (width×height),[4]; day 1 of treatment,1.5188
same,growth,[4]; day 3 of treatment,0.1551
same,size of tumour (width×height),[4]; day 3 of treatment,1.6739
same,growth,[4]; day 7 of treatment,-0.2118
same,size of tumour (width×height),[4]; day 7 of treatment,1.3070
same,growth,[4]; day 9 of treatment,-0.4714
same,size of tumour (width×height),[4]; day 9 of treatment,1.0474
same,growth,[4]; day 14 of treatment,-0.5392
same,size of tumour (width×height),[4]; day 14 of treatment,0.1179
same,growth,[4]; day 17 of treatment,-0.5752
same,size of tumour (width×height),[4]; day 17 of treatment,0.0820
same,growth,[4]; day 21 of treatment,-0.5851
same,size of tumour (width×height),[4]; day 21 of treatment,0.0721
same,growth,[4]; day 25 of treatment,-0.5682
same,size of tumour (width×height),[4]; day 25 of treatment,0.0891
same,growth,[4]; day 28 of treatment,-0.5640
same,size of tumour (width×height),[4]; day 28 of treatment,0.09316
same,growth,[4]; day 35 of treatment,-0.5379
same,size of tumour (width×height),[4]; day 35 of treatment,0.1193
same,growth of the tumours (in words),[4]; highest dose used (30 mg/kg),the growth of the tumours was found to stop
same,dose range at which antitumour effect was found,"[4]; rat, in vivo",1.0 to 30 mg/kg
same,size of rat ovarial carcinoma smaller compared with control,rat ovarial carcinoma,20%
"Oc1ccc(/C(=C(/CCCl)c2ccccc2)c2ccccc2)cc1 [Compound 15, 4-chloro-1,2-diphenyl-1-(4-hydroxyphenyl)-1-butene]",IC50,oestrogen receptors,1000 to 10000 nM
same,IC50,[1],5000 to 10000 nM
same,effect given alone: estrogenic (in words),immature mouse uterus [2],estrogenic
same,"increase in the weights of mice uterus, given alone",immature mouse uterus [2],20%
same,inhibition of estradiol induced effect in mouse uterus,[3]; 5 mg/kg,25%
same,anti-estrogenic effect (in words),[3],possessed anti-estrogenic effects
same,effect with estradiol (in words),[3],anti-
same,"reduction in the weights of mice uterus, with estradiol",[3],25%
